{
  "source": "patent US20070087364A1",
  "about": "“In vitro erythroid micronucleus assay for genotoxicity” (Massachusetts Institute of Technology, priority 2005, published 2007)",
  "key": {"bone marrow": {"tested_on": "bone marrow", "details": "dose concentrations up to 20 μM, in vitro dosing (Glassner 1999); cited from earlier work"}, "[1]": {"tested_on": "Lin^− fraction of C57BL/6J (mouse) BM", "experiment": "in vitro erythroid micronucleus assay, erythropoietic culture of wild-type Lin− bone marrow"}, "[2]": {"details": "bolus injection of 25 mg/kg, cited from earlier work"}, "MGMT^−/− Lin^− BM": {"tested_on": "MGMT^−/− Lin^− BM", "experiment": "in vitro erythroid micronucleus assay, MGMT−/− Lin− bone marrow", "details": "introduced 10 h, 23 h or 30 h after seeding, harvest 72 h"}, "[3]": {"tested_on": "bone marrow PCEs (reticulocytes)", "details": "mouse; cited from earlier work"}, "Lin^− bone marrow cells [4]": {"tested_on": "Lin^− bone marrow cells", "experiment": "PCE growth of Lin− bone marrow by acridine orange histology, fractional-factorial design with regression", "assay_type": "cell-based, mouse", "protocol": "(FIG. 14A) Lin^− bone marrow cells were cultured for 1 day in media containing serum and various combinations of soluble growth factors as listed on the abscissa; these specific 6-factor combinations constitute an orthogonal fractional-factorial design (also represented in Table 1). After 1 day, all soluble erythropoietic growth factors were removed and the cells were cultured for either 2 or 3 additional days in medium with serum. At harvest, the cells were removed from culture and late erythropoietic growth was quantified. For each culture, PCE numbers were calculated by taking the product of the total cell count and the PCE fraction of the population as determined by differential cell counting after staining with acridine orange (>2000 cells scored per culture). Growth calculations were normalized to input cell numbers and are presented as the mean of 3 independent cultures +/− the standard deviation. (FIG. 14B) Culture methods that yielded similar populations at harvest were grouped into subsets (α, β, γ, and δ); growth characteristics for these subsets were quantified and representative micrographs were acquired. […] Cultures exposed to SCF but not Epo (subset γ) expanded approximately 2.5-fold in total cell numbers, but again contained less than 3% PCEs. Cultures exposed to both Epo and SCF (subset β) expanded approximately 13-fold in total cell numbers and yielded populations in which approximately 31% of all cells are PCEs. Finally, cultures exposed to both Epo and Dex but not SCF (subset δ) expanded approximately 4-fold while producing populations in which approximately 51% of all cells are PCEs. Growth calculations are presented as the mean of all cultures in a subset ± the standard deviation. Scale bars: 20 μm.\nTable I is an experimental design chart that provides the specific details of the experimental conditions that were examined to generate FIGS. 11, 12, 14 and 16. Specifically, this experimental design is a two-level, minimum-aberration, fractional-factorial design of resolution IV (a 2IV^6-2 minimum-aberration design). The full-factorial design was not performed because an experiment of this size (2^6 cultures for each biological singlet) was logisitically infeasible. This experiment was designed in order to estimate all the main (primary) interactions between the culture response (PCEs produced) and the individual parameters included in the design. In addition, many of the secondary interactions (between the culture response and various parameter-pairs) were estimable by conducting this design (see FIGS. 12 and 16), although some of these secondary interactions were confounded with other secondary interactions. Each condition listed in the design table was tested in biological triplicate, and each triplicate set was cultured under three different atmospheric conditions, to yield a total of nine culture wells per listed condition.\nFurthermore, some variability between various Lin^− BM isolations was observed over the course of preliminary flow cytometric studies. Therefore, a definitive study was conducted that used aliquots of a large, well-mixed Lin^− population that was isolated from the combined BM of 15 mice. In this study, flow cytometry was replaced by histological analysis to provide more rigorous quantification of a population's PCE content. This study was designed to estimate the relative stimulatory effect of various, previously-identified erythroid growth factors on culture performance. Specifically a minimum-aberration, fractional-factorial experimental design (a 2IV^6-2 minimum-aberration design) was conducted to estimate all the main (primary) interactions between the culture response, which was PCEs produced (as assessed by histology), and the individual parameters included in the design (see Table I, and FIGS. 11, 12, 14 and 16). […]"}, "Lin^− bone marrow cells [5]": {"tested_on": "Lin^− bone marrow cells", "experiment": "erythropoietic growth of Lin− bone marrow quantified by flow cytometry (Ter-119/CD71) and total cell counts", "assay_type": "cell-based, mouse", "details": "for Avg Growth +/− SD: 5% CO2, 20% O2, Fn 2, Ins 10", "protocol": "FIG. 13 is a bar graph of data obtained from experiments performed to determined the effect of Epo on the erythropoietic growth of Lin− bone marrow cells. Lin^− bone marrow cells were cultured for 1 day in media containing serum along with Epo at variable concentrations. Epo was removed from the culture media at the end of 1 day, and culture was continued for 2 more days in media with serum. At the end of the third day, the resulting populations were removed from culture and erythropoietic growth was quantified as the product of total cell counts and flow cytometric region fractions. Specifically, erythroid-specific growth at two late stages was calculated for each culture by taking the product of the total cell count and the fraction of the population found to have the indicated surface phenotype (determined by flow cytometry). These erythroid growth values were then normalized to the number of Lin^− cells seeded.\nStudies were conducted by stimulating Lin^− mouse BM with specifically defined media formulations for 24 hours before replacing the medium to a minimal erythroid-differentiation medium (EDM) and culturing for an additional 2-3 days. This EDM contains 20% FBS, 2 mM L-glutamine, and 0.1 mM β-mercaptoethanol in IMDM, whereas the “Day 1” medium consists of IMDM with 15% FBS, 2 mM L-glutamine, 0.1 mM β-mercaptoethanol, 1% BSA, 200 μg holo-transferrin, 10 μg/mL insulin as well as further supplements (some specific media formulations listed in Table I). Upon harvest, the number of late-stage erythroid cells and enucleated erythrocytes produced over the culture period was analyzed. […] Although the most relevant endpoint for these cultures is PCEs-produced per primary BM cell, the number of R4 and R5 cells in the post-culture population, as measured by flow ctyometry, provided a reasonable metric of PCE content for early screening studies. More rigorous quantification, via histological analysis, was then employed in a more detailed analysis to generate FIGS. 11, 12, 14 and 16.\nAs shown above, short-term erythropoietic culture can be used to detect genotoxic exposure. Quantitative studies on the erythropoietic growth of Lin^− BM after stimulus with physiologic erythropoietic factors were used to further improve the culture methodology and thus increase the potential throughput of the in vitro erythroid MN assay described here. Initially, flow cytometry was used to define late-erythroid cells by subdividing the Ter-119^+ population based on CD71 expression (regions shown in FIG. 4) to estimate the fraction of a culture that acquired late-erythroid surface markers. The products of flow cytometric region statistics and total cell counts were calculated and then normalized to input cell numbers to quantify erythropoietic growth in a culture.\nTable II. in vitro erythroid growth is modulated by physiologic erythropoietic stimuli. The culture conditions listed on the left-hand side of the table specify the environment in which a growth measurement was made. All soluble growth factors used in these experiments were removed from culture after 1 day. An X in this first section of the table indicates the variable parameter found to have a significant erythropoietic growth-effect. The measured effect of that parameter on erythropoietic growth is then given on the right-hand side of the table. In this right-hand section of the table, the first item listed is the defining surface phenotype of the erythropoietic population. […] Finally, the level of significance (P value) is given. Note that the first 4 entries to this table were taken from FIG. 13; other entries were obtained from similar figures. P values were determined by the two-tailed t test, except for the 3 italicized P values, which were determined using the one-tailed t test."}},
  "note": "“Also recorded” adds a separate entry of the source.",
  "data": [
    {"compound": "O=NN(CCCl)C(=O)NCCCl", "note": "[BCNU, 1,3-bis (2-chloroethyl) -1-nitrosourea]", "values": [
      {"measurement": "cell survival as measured by colony assay", "setting": "bone marrow", "value": "~100", "unit": "%"},
      {"measurement": "MN frequency in the PCE population (MN-PCE frequency)", "setting": "[1]; 20 μM introduced 7 hours after seeding, harvest after 72 hours, vs vehicle control", "value": "provides a clear signal of genotoxicity; also recorded: significantly different than those exposed to vehicle control alone; also recorded: an increase in the frequency of MN-PCEs"},
      {"measurement": "cell killing and MN formation", "setting": "[1]; MGMT+/+ BM cultures treated 4 h after culture initiation (data not shown)", "value": "cell-killing dominated and very little MN formation was observed"},
      {"measurement": "peak plasma concentration", "setting": "[2]; after 1 minute (Meulemans 1989)", "value": "~0.4", "unit": "mM"},
      {"measurement": "plasma level", "setting": "[2]; within the next 15 minutes (Meulemans 1989)", "value": "approximately 40 μM"},
      {"measurement": "MN frequency, MGMT−/− vs wild-type cultures", "setting": "MGMT^−/− Lin^− BM; 10 μM and 20 μM doses", "value": "significant increases in MN frequency; also recorded: more sensitive to growth-inhibition and MN-formation"},
      {"measurement": "cell survival (growth inhibition), MGMT−/− vs wild-type cultures", "setting": "MGMT^−/− Lin^− BM", "value": "decreased cell survival"}
    ]},
    {"compound": "COS(C)(=O)=O", "note": "[MMS, methylmethane sulfonate]", "values": [
      {"measurement": "result in the in vivo MN assay", "setting": "[3]", "value": "test positive"}
    ]},
    {"compound": "SCF: stem cell factor (R&D systems), soluble erythropoietic growth factor", "values": [
      {"measurement": "Scaled Estimate (model parameter, PCE growth)", "setting": "Lin^− bone marrow cells [4]; complete multi-linear regression model (n3=27), parameters scaled 0 to 1", "value": 0.166},
      {"measurement": "PCEs among all cells of the harvested population", "setting": "Lin^− bone marrow cells [4]; growth factors present for 1 day, then 2 or 3 additional days, acridine orange differential counts (FIG. 14B)", "value": "less than 3%"},
      {"measurement": "expansion in total cell numbers", "setting": "Lin^− bone marrow cells [4]; growth factors present for 1 day, then 2 or 3 additional days, mean of all cultures in a subset (FIG. 14B)", "value": "approximately 2.5 fold"},
      {"measurement": "effect on PCE production / erythropoietic growth, statistical analysis of FIG. 12", "setting": "Lin^− bone marrow cells [4]; primary and secondary effects, untreated cultures", "value": "major factors influencing erythropoietic growth; also recorded: next largest effects"},
      {"measurement": "Scaled Estimate (model parameter, PCE growth)", "setting": "Lin^− bone marrow cells [4]; reduced multi-linear regression model (n3=17), FIG. 16", "value": 0.138},
      {"measurement": "Avg Growth +/− SD", "setting": "Lin^− bone marrow cells [5]; [SCF] = 1 ng/mL, Ter-119+ CD71+, Epo 5 U/mL, 72 h", "value": "0.897 +/− 0.053 per Lin^− cell seeded"},
      {"measurement": "Avg Growth +/− SD", "setting": "Lin^− bone marrow cells [5]; [SCF] = 1 ng/mL, Ter-119+ CD71−, Epo 5 U/mL, 72 h", "value": "0.275 +/− 0.026 per Lin^− cell seeded"},
      {"measurement": "Avg Growth +/− SD", "setting": "Lin^− bone marrow cells [5]; [SCF] = 1 ng/mL, Ter-119+ CD71−, Epo 5 U/mL, 96 h", "value": "0.372 +/− 0.052 per Lin^− cell seeded"},
      {"measurement": "Avg Growth +/− SD", "setting": "Lin^− bone marrow cells [5]; [SCF] = 10 ng/mL, Ter-119+ CD71+, Epo 3.5 U/mL, 72 h", "value": "1.512 +/− 0.100 per Lin^− cell seeded"},
      {"measurement": "Avg Growth +/− SD", "setting": "Lin^− bone marrow cells [5]; [SCF] = 10 ng/mL, Ter-119+ CD71+, Epo 5 U/mL, 72 h", "value": "1.448 +/− 0.155 per Lin^− cell seeded"},
      {"measurement": "Avg Growth +/− SD", "setting": "Lin^− bone marrow cells [5]; [SCF] = 10 ng/mL, Ter-119+ CD71−, Epo 3.5 U/mL, 72 h", "value": "0.202 +/− 0.023 per Lin^− cell seeded"},
      {"measurement": "Avg Growth +/− SD", "setting": "Lin^− bone marrow cells [5]; [SCF] = 10 ng/mL, Ter-119+ CD71−, Epo 5 U/mL, 96 h", "value": "0.608 +/− 0.081 per Lin^− cell seeded"},
      {"measurement": "Avg Growth +/− SD", "setting": "Lin^− bone marrow cells [5]; [SCF] = 100 ng/mL, Ter-119+ CD71+, Epo 5 U/mL, 72 h", "value": "1.929 +/− 0.154 per Lin^− cell seeded"},
      {"measurement": "Avg Growth +/− SD", "setting": "Lin^− bone marrow cells [5]; [SCF] = 100 ng/mL, Ter-119+ CD71−, Epo 5 U/mL, 72 h", "value": "0.369 +/− 0.041 per Lin^− cell seeded"},
      {"measurement": "effect on erythropoietic growth (erythropoietic flow cytometry), in words", "setting": "Lin^− bone marrow cells [5]; preliminary flow cytometric studies, Lin− BM from C57BL/6J mice", "value": "did induce increasing erythropoietic growth up to the maximum concentration tested"}
    ]}
  ]
}
